According to BindingDB's records for doi:10.7270/Q2KD1WBN (Burnham Center For Chemical Genomics, 2010):

Molecular target: Envelope glycoprotein gp160 (Human immunodeficiency virus 1, UniProt Q6QLK5)
Assay: HIV fusion inhibitor analogs, peptide binding, SAR follow-up, biochemical, fluorescence quenching (AID 434967)

Sequence of Envelope glycoprotein gp160 (Q6QLK5 whole entry, the tested form may be a part): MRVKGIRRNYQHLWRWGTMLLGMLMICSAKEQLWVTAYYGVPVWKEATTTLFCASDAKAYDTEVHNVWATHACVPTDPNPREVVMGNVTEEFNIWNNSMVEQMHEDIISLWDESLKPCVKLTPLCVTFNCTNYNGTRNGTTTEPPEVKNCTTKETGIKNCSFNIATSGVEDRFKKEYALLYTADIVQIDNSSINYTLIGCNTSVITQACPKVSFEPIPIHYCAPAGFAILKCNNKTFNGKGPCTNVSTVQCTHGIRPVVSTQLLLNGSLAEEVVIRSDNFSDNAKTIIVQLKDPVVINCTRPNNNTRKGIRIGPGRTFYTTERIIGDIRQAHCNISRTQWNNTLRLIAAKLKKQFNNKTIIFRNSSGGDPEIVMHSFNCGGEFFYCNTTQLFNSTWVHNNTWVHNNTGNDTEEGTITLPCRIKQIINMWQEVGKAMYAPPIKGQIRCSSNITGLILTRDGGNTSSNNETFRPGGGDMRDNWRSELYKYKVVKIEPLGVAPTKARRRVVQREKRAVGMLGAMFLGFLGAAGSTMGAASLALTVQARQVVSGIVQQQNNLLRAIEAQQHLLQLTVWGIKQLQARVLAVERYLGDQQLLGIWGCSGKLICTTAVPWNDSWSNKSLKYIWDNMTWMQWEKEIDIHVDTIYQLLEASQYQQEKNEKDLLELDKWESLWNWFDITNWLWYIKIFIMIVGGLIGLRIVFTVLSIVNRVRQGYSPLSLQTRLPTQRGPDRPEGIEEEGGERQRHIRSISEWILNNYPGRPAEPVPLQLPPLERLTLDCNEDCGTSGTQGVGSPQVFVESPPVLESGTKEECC

For `O=c1/c(=C/c2cc([N+](=O)[O-])cc([N+](=O)[O-])c2O)sc2nc3ccccc3n12` [2-[(2-hydroxy-3,5-dinitrophenyl)methylidene]-1-thiazolo[3,2-a]benzimidazolone], the IC50 was 2.61 µM.
In the case of `Cc1cc(C)cc(-n2cccc2/C=C2/C(=N)N3C(=NC2=O)SN=C3S(C)(=O)=O)c1` [(6Z)-5-azanylidene-6-[[1-(3,5-dimethylphenyl)pyrrol-2-yl]methylidene]-3-methylsulfonyl-[1,2,4]thiadiazolo[4,5-a]pyrimidin-7-one], the IC50 is reported as 7.81 µM.
In the case of `O=C(O)c1ccccc1C(=O)N(Cc1cccc(Oc2ccc(Cl)cc2)c1)[C@H]1CCCc2ccccc21` [2-[[[3-(4-chlorophenoxy)phenyl]methyl-[(1S)-1,2,3,4-tetrahydronaphthalen-1-yl]amino]-oxomethyl]benzoic acid], the IC50 is reported as 2.6 µM.
`CCOC(=O)C1=C(C)N=c2sc(=Cc3ccc(OCC(=O)O)cc3)c(=O)n2C1c1ccc(OC(C)C)cc1` (stereo not drawn) [2-[4-[[6-ethoxycarbonyl-7-methyl-3-oxo-5-(4-propan-2-yloxyphenyl)-5H-[1,3]thiazolo[3,2-a]pyrimidin-2-ylidene]methyl]phenoxy]acetic acid] showed an IC50 of 6.64 µM.
For `Cc1ccc(-n2cccc2/C=C2/C(=N)N3C(=NC2=O)SN=C3S(C)(=O)=O)cc1Cl` [MLS000583163], the IC50 was 5.76 µM.
With `Cc1c(Cl)cccc1NS(=O)(=O)c1ccc2c(c1)C1C=CCC1C(c1ccc(C(=O)O)cc1)N2` (stereo not drawn) the IC50 was 3.16 µM.
`CS(=O)(=O)C1=NSC2=NC(=O)/C(=C\c3ccc(OS(=O)(=O)c4ccccc4)cc3)C(=N)N21` was tested, and the IC50 was 7.73 µM.
`COc1ccccc1NS(=O)(=O)c1cccc(-n2c(O)c(C=Nc3ccccc3C(=O)O)c3ccccc3c2=O)c1` [MLS000776209] showed an IC50 of 9.64 µM.
Molecule `O=C(O)c1cc(N=NCc2ccc(-c3ccccc3)cc2)ccc1Cl` [MLS-0319671.0001] has an IC50 of 14.8 µM.
With `O=C1Nc2ccc([N+](=O)[O-])cc2C1=NNc1ccccc1C(=O)O` [2-[2-(5-nitro-2-oxidanylidene-indol-3-yl)hydrazinyl]benzoic acid] the IC50 was 13.3 µM.
With `Cc1c2c(=O)n(-c3nc4ccccc4s3)[nH]c2cc(=O)n1Cc1ccccc1` [MLS000762993] the IC50 was 10.1 µM.
`CCS(=O)(=O)C1=NSC2=NC(=O)/C(=C\c3ccc(OS(=O)(=O)c4ccccc4)cc3)C(=N)N21` [MLS-0362442.0001] was tested, and the IC50 was 11.5 µM.
Work on `CSc1nnc(-c2ccccc2N=Cc2c(C)[nH]n(-c3ccc4ccccc4c3)c2=O)c(=O)[nH]1` [MLS000540062] yielded an IC50 of 9.84 µM.
`CCOc1cc(/C=C2\SC(=O)N(CC(=O)Nc3ccccc3F)C2=O)cc([N+](=O)[O-])c1O` showed an IC50 of 4.32 µM.
Work on `COc1cc(CN=Nc2ccc(Cl)c(C(=O)O)c2)ccc1OC(=O)c1ccc(F)cc1` [2-chloro-5-[2-[[4-[(4-fluorophenyl)-oxomethoxy]-3-methoxyphenyl]methylidene]hydrazinyl]benzoic acid] yielded an IC50 of 8.03 µM.
In the case of `COc1cc(/C=N/NS(=O)(=O)c2ccc3ccccc3c2)ccc1OCc1ccc(C(=O)O)cc1` [MLS-0298745.0001], the IC50 is reported as 7.76 µM.
In the case of `COC(=O)c1sc(-c2ccc(C(C)(C)C)cc2)cc1NC(=O)c1ccccc1C(=O)O` [SMR000456098], the IC50 is reported as 5.94 µM.
With `COc1ccc(C(=O)Oc2ccc(CN=Nc3ccc(Cl)c(C(=O)O)c3)cc2OC)cc1` [SMR000589907] the IC50 was 5.16 µM.
With `CCC(C)(C)C1CCc2c(sc(NC(=O)c3ccccc3C(=O)O)c2C#N)C1` (stereo not drawn) [2-[[3-cyano-6-(2-methylbutan-2-yl)-4,5,6,7-tetrahydro-1-benzothiophen-2-yl]carbamoyl]benzoic acid] the IC50 was 6.1 µM.
With `CC(C)(C)c1cc(-c2cs/c(=N\c3ccccc3)n2Cc2ccc(C(=O)O)cc2)cc(C(C)(C)C)c1O` [4-[[4-(3,5-ditert-butyl-4-oxidanyl-phenyl)-2-phenylazanyl-1,3-thiazol-3-ium-3-yl]methyl]benzoic acid;bromide] the IC50 was 27.3 µM.
`COc1cc(/C=C2\SC(=O)N(c3ccccc3Cl)C2=O)cc([N+](=O)[O-])c1O` gave an IC50 of 9.04 µM.
In the case of `COc1ccc(OC)c(N2C(=O)C(=Cc3ccco3)C(=O)NC2=S)c1` [MLS001197216], the IC50 is reported as 6.06 µM.
`CCOC(=O)c1sc(N2C(=O)C(=O)C(C(=O)c3ccc(C)o3)C2c2cccc([N+](=O)[O-])c2)nc1C` (stereo not drawn) [ethyl 4-methyl-2-[3-(5-methylfuran-2-yl)carbonyl-2-(3-nitrophenyl)-4-oxidanyl-5-oxidanylidene-2H-pyrrol-1-yl]-1,3-thiazole-5-carboxylate] showed an IC50 of 10.5 µM.
Work on `CS(=O)(=O)C1=NSC2=NC(=O)/C(=C\c3cccn3-c3ccc(Cl)cc3)C(=N)N21` yielded an IC50 of 5.7 µM.
Molecule `O=C1NC(=S)N(C2CCCCC2)C(=O)C1=CNNC(=O)c1ccccc1O` [N'-[(E)-(1-cyclohexyl-4,6-dioxo-2-sulfanylidene-1,3-diazinan-5-ylidene)methyl]-2-hydroxybenzohydrazide] has an IC50 of 9 µM.
`COc1cc(CN=Nc2ccc(Cl)c(C(=O)O)c2)ccc1OC(=O)c1ccccc1F` [SMR000589905] was tested, and the IC50 was 25.9 µM.
In the case of `CC1(C)CC(=O)C2=C(C1)c1c(ccc3ccccc13)NC2c1cc([N+](=O)[O-])cc([N+](=O)[O-])c1O` (stereo not drawn) [MLS000716265], the IC50 is reported as 13.5 µM.
`O=[N+]([O-])c1cc([N+](=O)[O-])c2oc(-c3ccccc3)c(Br)c2c1O` [3-bromanyl-5,7-dinitro-2-phenyl-1-benzofuran-4-ol] showed an IC50 of 14.5 µM.
In the case of `O=C1NC(=S)N(c2ccc(F)cc2)C(=O)C1=Cc1ccco1` [(5E)-1-(4-fluorophenyl)-5-(2-furanylmethylidene)-2-sulfanylidene-1,3-diazinane-4,6-dione], the IC50 is reported as 10 µM.
With `O=C1NC(=S)N(c2ccc(F)cc2)C(=O)C1=Cc1ccoc1` [SMR000270574] the IC50 was 8.59 µM.
`CC(C)NC(=O)c1sc(=S)n2c1[nH]c(=O)c1ccc(C(=O)NCCc3ccc(Cl)cc3)cc12` [N8-[2-(4-chlorophenyl)ethyl]-5-oxidanylidene-N3-propan-2-yl-1-sulfanylidene-4H-[1,3]thiazolo[3,4-a]quinazoline-3,8-dicarboxamide] showed an IC50 of 9.56 µM.
With `O=C(O)CCCN1C(=O)/C(=C/c2ccc(-c3nc4ccccc4s3)o2)SC1=S` [4-[(5Z)-5-[[5-(1,3-benzothiazol-2-yl)furan-2-yl]methylidene]-4-oxo-2-sulfanylidene-1,3-thiazolidin-3-yl]butanoic acid] the IC50 was 1.76 µM.
For `N#C/C(=C\C1C=CC(=O)C([N+](=O)[O-])=C1)c1nc2ccccc2s1` (stereo not drawn), the IC50 was 6.25 µM.
Molecule `CCC(Sc1nc2ccsc2c(=O)n1Cc1ccc(C(=O)O)cc1)C(=O)Nc1ccc(C)c(Cl)c1` (stereo not drawn) has an IC50 of 8.01 µM.
`Cc1ccc(-n2c(O)c(C=Nc3ccccc3-c3n[nH]c(=S)[nH]c3=O)c3ccccc3c2=O)c(C)c1` [SMR000370443] gave an IC50 of 5.76 µM.
Molecule `Cc1ccc(S(=O)(=O)Oc2ccc(/C=C3/C(=N)N4C(=NC3=O)SN=C4S(C)(=O)=O)cc2)cc1` [4-methylbenzenesulfonic acid [4-[(Z)-(5-imino-3-methylsulfonyl-7-oxo-[1,2,4]thiadiazolo[4,5-a]pyrimidin-6-ylidene)methyl]phenyl] ester] has an IC50 of 6.51 µM.
Work on `CC(C)S(=O)(=O)C1=NSC2=NC(=O)/C(=C\c3ccc(-c4cccc(C(=O)O)c4)o3)C(=N)N21` [3-[5-[(Z)-(5-imino-7-oxo-3-propan-2-ylsulfonyl-[1,2,4]thiadiazolo[4,5-a]pyrimidin-6-ylidene)methyl]furan-2-yl]benzoic acid] yielded an IC50 of 4.49 µM.
`CC(C)S(=O)(=O)C1=NSC2=NC(=O)/C(=C\c3ccc(-c4ccccc4)o3)C(=N)N21` [(6Z)-5-imino-6-[(5-phenyl-2-furanyl)methylidene]-3-propan-2-ylsulfonyl-[1,2,4]thiadiazolo[4,5-a]pyrimidin-7-one] showed an IC50 of 9.65 µM.
